According to publication PMC10492809, “A Bischler-Napieralski and homo-Mannich sequence enables diversified syntheses of sarpagine alkaloids and analogues” (Nature Communications, 2023):
Where “and” joins values, the source holds several entries; their conditions need not be identical. Equal values may be shown once. Read-outs that look alike come from different tables or passages of the source.

Legend:
Format in all cases: cell-based
cancer cell lines = assay: In vitro cancer cell assays (antiproliferation, cell line not given)
Experimental: (§1) All cell lines were cultured at 37 °C with 5% CO2 in a humidified incubator. HeLa cells were grown in MEM (Gibco) supplemented with 10% fetal bovine serum (FBS, Hyclone) and 1% penicillin/streptomycin (Gibco). MIA PaCa-2, MDA-MB-231, A549, MCF-7, A375 and BEAS-2B cells were grown in DMEM (Gibco) supplemented with 10% FBS and 1% penicillin/streptomycin. CT26, and HCT116 cells were grown in RPMI-1640 supplemented with 10% FBS and 1% penicillin/streptomycin. All cell lines were purchased from the National Collection of Authenticated Cell Cultures (China).
(§2) The antiproliferative activities of the prepared compounds against tested cell lines were evaluated using a standard (MTT)-based colorimetric assay. Cells were plated at a density of 3000 cells/well in 96-well plates and allowed to adhere overnight. Then cells were treated with varying concentrations of synthesized compounds for 72 h. At the end of treatment, 20 μL of thiazolyl blue tetrazolium bromide (MTT) solution (5 mg/mL) was added to each well. Cells were incubated for an additional 4 h at 37 °C and then the medium was removed and replaced with 200 μL of DMSO. The absorbance (OD490) was read on a microplate reader (SpectraMax i3x, Molecular Devices, US). In all experiments, three replicate wells were used for each drug concentration. Each assay was performed at least three times. The IC50 values were calculated by GraphPad Prism 9, which were the mean values derived from three independent experiments.

MDA-MB-231 = assay: MTT cell viability assay, MDA-MB-231
Experimental: as §1, §2

HCT 116 = assay: MTT cell viability assay, HCT 116
Experimental: as §1, §2

Hela = assay: MTT cell viability assay, Hela
Experimental: as §1, §2

MIA PaCa-2 = assay: MTT cell viability assay, MIA PaCa-2
Experimental: as §1, §2

A549 = assay: MTT cell viability assay, A549
Experimental: as §1, §2

[1] = test system: lung epithelial BEAS-2B cells; assay: MTT cytotoxicity towards normal cells, BEAS-2B; settings: for CC50: MTT, 72 h, cytotoxicity towards normal cells, mean of at least three independent experiments; for IC50: source data sheet, single values of three experiments
Experimental: as §1, §2

CT26 = assay: MTT cell viability assay, CT26
Experimental: as §1, §2

A375 = assay: MTT cell viability assay, A375
Experimental: as §1, §2

MCF-7 = assay: MTT cell viability assay, MCF-7
Experimental: as §1, §2

[2] = MTT cytotoxicity towards normal cells, BEAS-2B; settings: human
Experimental: as §1, §2

[3] = MTT, 72 h, mean of at least three independent experiments, read-out: IC50 MDA-MB-231
[4] = source data sheet, single values of three experiments, read-out: MTT IC50 MDA-MB-231
[5] = MTT, 72 h, mean of at least three independent experiments, read-out: IC50 HCT 116
[6] = source data sheet, single values of three experiments, read-out: MTT IC50 HCT-116
[7] = MTT, 72 h, mean of at least three independent experiments, read-out: IC50 Hela
[8] = source data sheet, single values of three experiments, read-out: MTT IC50 Hela
[9] = MTT, 72 h, mean of at least three independent experiments, read-out: IC50 MIA PaCa-2
[10] = source data sheet, single values of three experiments, read-out: MTT IC50 MIA PaCa-2
[11] = MTT, 72 h, mean of at least three independent experiments, read-out: IC50 A549
[12] = source data sheet, single values of three experiments, read-out: MTT IC50 A549
[13] = MTT, 72 h, mean of at least three independent experiments, read-out: IC50 CT26
[14] = source data sheet, single values of three experiments, read-out: MTT IC50 CT-26
[15] = MTT, 72 h, mean of at least three independent experiments, read-out: IC50 A375
[16] = source data sheet, single values of three experiments, read-out: MTT IC50 A375
[17] = MTT, 72 h, mean of at least three independent experiments, read-out: IC50 MCF-7
[18] = source data sheet, single values of three experiments, read-out: MTT IC50 MCF-7

Row | SMILES | IC50 (MDA-MB-231; [3]) [µM] | IC50 (MDA-MB-231; [4]) | IC50 (HCT 116; [5]) [µM] | IC50 (HCT 116; [6]) | IC50 (Hela; [7]) [µM] | IC50 (Hela; [8]) | IC50 (MIA PaCa-2; [9]) [µM] | IC50 (MIA PaCa-2; [10]) | IC50 (A549; [11]) [µM] | IC50 (A549; [12]) | CC50 [1] [µM] | IC50 [1] [µM] | IC50 (CT26; [13]) [µM] | IC50 (CT26; [14]) | IC50 (A375; [15]) [µM] | IC50 (A375; [16]) | IC50 (MCF-7; [17]) [µM] | IC50 (MCF-7; [18]) | also measured
1 | C=C=C1CN2[C@H]3C[C@H]1[C@H](C(=O)O)[C@@H]2Cc1c3n(S(=O)(=O)c2ccc(C)cc2)c2ccccc12 [Compound 15an] |  |  |  |  |  |  |  |  |  |  |  |  |  |  |  |  |  |  | loss in antiproliferation activity on replacing the aldehyde group (cancer cell lines; SAR statement in words): complete
2 | C=C=C1CN2[C@H]3C[C@H]1[C@H](C=O)[C@@H]2Cc1c3n(S(=O)(=O)c2ccc(C)cc2)c2ccccc12 [Compound 15ad] | 3.07 | 3.01 µM and 3.83 µM and 2.38 µM | 5.25 | 6.65 µM and 4.08 µM and 5.02 µM | 4.37 | 5.18 µM and 4.35 µM and 3.58 µM | 12.1 | 12.3 µM and 14 µM and 10.1 µM | 10.4 | 9.24 µM and 12.1 µM and 10 µM | > 100 | > 100 | 8.14 | 10 µM and 7.29 µM and 7.11 µM | 3.57 | 5.01 µM and 2.69 µM and 3.01 µM | 11.3 | 10.5 µM and 14 µM and 9.22 µM | 
3 | CC=C1CN2C3CC1C(C=O)C2Cc1c3n(C)c2ccccc12 (stereo not shown) [Na-methylvellosimine (5), Na-methylvellosimine] |  | 22.8 µM and 18.8 µM |  | 22.5 µM and 23 µM |  | 21.9 µM and 20.4 µM |  | 23.5 µM and 27.3 µM |  | 19 µM and 20.4 µM |  |  |  | 20.7 µM and 23.8 µM |  | 25.9 µM and 27.8 µM |  | 40.8 µM and 39.9 µM | IC50 (MDA-MB-231; Homo sapiens, MDA-MB-231, 72 h, MTT, 72 h, mean of at least three independent experiments, read-out: IC50 MDA-MB-231): 20.7 µM; IC50 (MDA-MB-231; Homo sapiens, MDA-MB-231, source data sheet, single values of three experiments, read-out: MTT IC50 MDA-MB-231): 20.4 µM; IC50 (HCT 116; Homo sapiens, HCT-116, 72 h, MTT, 72 h, mean of at least three independent experiments, read-out: IC50 HCT 116): 23.6 µM; IC50 (HCT 116; Homo sapiens, HCT-116, source data sheet, single values of three experiments, read-out: MTT IC50 HCT-116): 25.2 µM; IC50 (Hela; Homo sapiens, HeLa, 72 h, MTT, 72 h, mean of at least three independent experiments, read-out: IC50 Hela): 22.3 µM; IC50 (Hela; Homo sapiens, HeLa, source data sheet, single values of three experiments, read-out: MTT IC50 Hela): 24.5 µM; IC50 (MIA PaCa-2; Homo sapiens, MIA PaCa-2, 72 h, MTT, 72 h, mean of at least three independent experiments, read-out: IC50 MIA PaCa-2): 26.7 µM; IC50 (MIA PaCa-2; Homo sapiens, MIA PaCa-2, source data sheet, single values of three experiments, read-out: MTT IC50 MIA PaCa-2): 29.2 µM; IC50 (A549; Homo sapiens, A549, 72 h, MTT, 72 h, mean of at least three independent experiments, read-out: IC50 A549): 20.9 µM; IC50 (A549; Homo sapiens, A549, source data sheet, single values of three experiments, read-out: MTT IC50 A549): 23.1 µM; IC50 at 72 h ([2]; BEAS-2B lung epithelial cells (normal cells), source data sheet, single values of three experiments): > 100 µM; CC50 at 72 h ([2]; BEAS-2B lung epithelial cells, MTT, 72 h, cytotoxicity towards normal cells, mean of at least three independent experiments): > 100 µM; IC50 (CT26; Mus musculus, CT26, 72 h, MTT, 72 h, mean of at least three independent experiments, read-out: IC50 CT26): 21.4 µM; IC50 (CT26; Mus musculus, CT26, source data sheet, single values of three experiments, read-out: MTT IC50 CT-26): 19.6 µM; IC50 (A375; Homo sapiens, A-375, 72 h, MTT, 72 h, mean of at least three independent experiments, read-out: IC50 A375): 27.6 µM; IC50 (A375; Homo sapiens, A-375, source data sheet, single values of three experiments, read-out: MTT IC50 A375): 29.2 µM; IC50 (MCF-7; Homo sapiens, MCF7, 72 h, MTT, 72 h, mean of at least three independent experiments, read-out: IC50 MCF-7): 41.8 µM; IC50 (MCF-7; Homo sapiens, MCF7, source data sheet, single values of three experiments, read-out: MTT IC50 MCF-7): 44.7 µM; antiproliferation activity in the in vitro cancer cell assays (cancer cell lines; result in words): moderate antiproliferation activity
4 | C=C=C1CN2[C@H]3C[C@H]1[C@H](C(=O)C=C)[C@@H]2Cc1c3n(S(=O)(=O)c2ccc(C)cc2)c2ccccc12 [Compound 15aq] | 8.12 | 10.1 µM and 8.05 µM and 6.22 µM | 10.3 | 12.2 µM and 8.29 µM and 10.3 µM | 10.9 | 12.4 µM and 9.52 µM and 10.6 µM | 20.2 | 22.2 µM and 19.5 µM and 18.9 µM | 19.2 | 22.2 µM and 18.2 µM and 17.1 µM | > 100 | > 100 | 15.7 | 15.9 µM and 17.2 µM and 14.1 µM | 7.48 | 9.41 µM and 6.42 µM and 6.61 µM | 24.8 | 24.3 µM and 27.2 µM and 22.8 µM | 
5 | CC=C1CN2C3CC1C(C=O)C2Cc1c3n(S(=O)(=O)c2ccc(C)cc2)c2ccccc12 (stereo not shown) [Compound 15ar] | 4.63 | 5.08 µM and 4.02 µM and 4.8 µM | 6.96 | 8.05 µM and 5.83 µM and 7.01 µM | 6.16 | 7.46 µM and 6.04 µM and 4.98 µM | 13.3 | 14.9 µM and 13 µM and 12 µM | 14.1 | 16.5 µM and 14 µM and 11.7 µM | > 100 | > 100 | 9.39 | 10.9 µM and 8.18 µM and 9.11 µM | 4.54 | 5.71 µM and 3.87 µM and 4.03 µM | 17.8 | 19.9 µM and 15.7 µM and 17.7 µM | 
